Values belong to the molecule of their own block, whether it stands above or below them. The source made the active and inactive calls. The calls are words filed in the database; no cut-off is given here.
Legend:
[1] = test system: Fibroblast; experiment: Cytotoxicity against human fibroblast assessed as reduction in cell viability at 0.1 to 300 uM incubated for 24 to 48 hrs by MTT assay; format: toxicity, cell-based; details: dose lower 0.1 µM, time lower 24 hrs, dose upper 300 µM, time upper 48 hrs
[2] = test system: A-375; experiment: Cytotoxicity against human A-375 assessed as reduction in cell viability at 0.1 to 300 uM incubated for 24 to 48 hrs by MTT assay; format: functional, cell-based; details: dose 0.1-300 µM, time 24-48 hrs
[3] = test system: U-87 MG; experiment: Cytotoxicity against human U-87 MG assessed as reduction in cell viability at 0.1 to 300 uM incubated for 24 to 48 hrs by MTT assay; format: functional, cell-based; details: U-87MG ATCC, dose 0.1-300 µM, time 24-48 hrs
[4] = test system: Fibroblast; experiment: Cytotoxicity against human fibroblast assessed as reduction in cell viability at 0.1 to 300 uM incubated for 72 hrs by MTT assay; format: toxicity, cell-based; details: dose 0.1-300 µM
[5] = test system: A-375; experiment: Cytotoxicity against human A-375 assessed as reduction in cell viability at 0.1 to 300 uM incubated for 72 hrs by MTT assay; format: functional, cell-based; details: dose 0.1-300 µM
[6] = test system: U-87 MG; experiment: Cytotoxicity against human U-87 MG assessed as reduction in cell viability at 0.1 to 300 uM incubated for 72 hrs by MTT assay; format: functional, cell-based; details: U-87MG ATCC, dose 0.1-300 µM
[7] = test system: Fibroblast; experiment: Cytotoxicity against human fibroblast assessed as reduction in cell viability at 300 uM incubated for 24 to 72 hrs by MTT assay relative to control; format: toxicity, cell-based; details: time 24-72 hrs
[8] = test system: A-375; experiment: Cytotoxicity against human A-375 assessed as reduction in cell viability at 300 uM incubated for 24 to 72 hrs by MTT assay relative to control; format: functional; details: time 24-72 hrs
[9] = test system: U-87 MG; experiment: Cytotoxicity against human U-87 MG assessed as reduction in cell viability at 300 uM incubated for 24 to 72 hrs by MTT assay relative to control; format: functional, U-87MG ATCC; details: time 24-72 hrs
[10] = test system: Fibroblast; experiment: Cytotoxicity against human fibroblast assessed as reduction in cell viability upto 100 uM incubated for 24 to 72 hrs by MTT assay; format: toxicity, cell-based; details: time 24-72 hrs
[11] = test system: A-375; experiment: Cytotoxicity against human A-375 assessed as reduction in cell viability upto 100 uM incubated for 24 to 72 hrs by MTT assay; format: functional, cell-based; details: time 24-72 hrs
[12] = test system: U-87 MG; experiment: Cytotoxicity against human U-87 MG assessed as reduction in cell viability upto 100 uM incubated for 24 to 72 hrs by MTT assay; format: functional, cell-based; details: U-87MG ATCC, time 24-72 hrs
[13] = Stability of compound in 20 mM CH3COONH4 buffer at pH 5.8 assessed as solvolysis constant (K) incubated for 72 hrs by LC-MS analysis; format: physicochemical; design: unit not given beside the values; details: pH 5.8, 72 h
[14] = Stability of compound in 50 mM Tris-HCL buffer at pH 7.4 assessed as solvolysis constant (K) incubated for 72 hrs by LC-MS analysis; format: physicochemical; details: pH 7.4, 72 h
[15] = Stability of compound in 0.05 M HCL assessed as solvolysis constant (K) incubated for 72 hrs by LC-MS analysis; format: physicochemical; design: unit not given beside the values; details: buffer
[16] = Stability of compound in 0.5 M NaOH assessed as solvolysis constant (K) incubated for 72 hrs by LC-MS analysis; format: physicochemical; design: unit not given beside the values
[17] = Stability of compound in 0.9 % saline solution assessed as solvolysis constant (K) incubated for 72 hrs by LC-MS analysis; format: physicochemical; details: buffer
[18] = Stability of compound in 50 mM Tris-HCL buffer at pH 7.4 assessed as half life incubated for 72 hrs by LC-MS analysis; format: physicochemical
[19] = Stability of compound in 0.5 M NaOH assessed as half life incubated for 72 hrs by LC-MS analysis; format: physicochemical
[20] = Stability of compound in 0.05 M HCL assessed as half life incubated for 72 hrs by LC-MS analysis; format: physicochemical
[21] = Stability of compound in 0.9 % saline solution assessed as half life incubated for 72 hrs by LC-MS analysis; format: physicochemical
[22] = Stability of compound in 20 mM CH3COONH4 buffer at pH 5.8 assessed as half life incubated for 72 hrs by LC-MS analysis; format: physicochemical; details: 20 mM ammonium acetate (CH3COONH4) buffer
[23] = Stability in mouse plasma measured after 1 hr by LC-HRMS analysis; format: ADME, cell-free; details: read-out: Stability
[24] = Stability of compound at pH 7.5 in phosphate buffer at 2 mg/ml; format: physicochemical
[25] = Metabolic stability in mouse liver microsomes assessed as drug hydrolysis by measuring 1-borono-N,N-dimethyl-N-((1-((3R,4R,5S,6R)-2,4,5-trihydroxy-6-(hydroxymethyl)tetrahydro-2H-pyran-3-yl)-1H-1,2,3-triazol-4-yl)methyl)methanaminium formation incubated for 1 hrs by LC-MS/MS analysis; format: ADME, Microsome
[26] = Stability of compound in 50 mM Tris-HCL buffer at pH 7.4 assessed as 1-borono-N,N-dimethyl-N-((1-((3R,4R,5S,6R)-2,4,5-trihydroxy-6-(hydroxymethyl)tetrahydro-2H-pyran-3-yl)-1H-1,2,3-triazol-4-yl)methyl)methanaminium formation incubated for 72 hrs by LC-MS analysis; format: physicochemical; details: pH 7.4, 72 h
[27] = Stability of compound in 0.05 M HCL assessed as 1-borono-N,N-dimethyl-N-((1-((3R,4R,5S,6R)-2,4,5-trihydroxy-6-(hydroxymethyl)tetrahydro-2H-pyran-3-yl)-1H-1,2,3-triazol-4-yl)methyl)methanaminium formation incubated for 72 hrs by LC-MS analysis; format: physicochemical; details: buffer
[28] = Stability of compound in 0.5 M NaOH assessed as 1-borono-N,N-dimethyl-N-((1-((3R,4R,5S,6R)-2,4,5-trihydroxy-6-(hydroxymethyl)tetrahydro-2H-pyran-3-yl)-1H-1,2,3-triazol-4-yl)methyl)methanaminium formation incubated for 72 hrs by LC-MS analysis; format: physicochemical
[29] = Stability of compound in 0.9 % saline solution assessed as 1-borono-N,N-dimethyl-N-((1-((3R,4R,5S,6R)-2,4,5-trihydroxy-6-(hydroxymethyl)tetrahydro-2H-pyran-3-yl)-1H-1,2,3-triazol-4-yl)methyl)methanaminium formation incubated for 72 hrs by LC-MS analysis; format: physicochemical; details: buffer
[30] = Stability of compound in 20 mM CH3COONH4 buffer at pH 5.8 assessed as 1-borono-N,N-dimethyl-N-((1-((3R,4R,5S,6R)-2,4,5-trihydroxy-6-(hydroxymethyl)tetrahydro-2H-pyran-3-yl)-1H-1,2,3-triazol-4-yl)methyl)methanaminium formation incubated for 72 hrs by LC-MS analysis; format: physicochemical; details: pH 5.8, 72 h
[31] = Stability of compound in 0.5 M NaOH assessed as N,N,N-trimethyl-1-(1-((3R,4R,5S,6R)-2,4,5-trihydroxy-6-(hydroxymethyl)tetrahydro-2H-pyran-3-yl)-1H-1,2,3-triazol-4-yl)methanaminium formation incubated for 72 hrs by LC-MS analysis; format: physicochemical
[32] = Stability of compound in 0.3 % H2O2 assessed as (3R,4R,5S,6R)-3-(4-((dimethylamino)methyl)-1H-1,2,3-triazol-1-yl)-6-(hydroxymethyl)tetrahydro-2H-pyran-2,4,5-triol formation incubated for 1 hrs by LC-MS analysis; format: physicochemical
[33] = Metabolic stability in mouse liver microsomes assessed as drug hydrolysis by measuring N-(boronomethyl)-N-butyl-N-(2-(2-(2-(((2R,3R,4S,5S,6R)-3,4,5-trihydroxy-6-(hydroxymethyl)tetrahydro-2H-pyran-2-yl)oxy)ethoxy)ethoxy)ethyl)butan-1-aminium formation incubated for 1 hr by LC-MS/MS analysis; format: ADME, Microsome
[34] = Stability of compound in Tris-HCL buffer at pH 7.4 assessed as N-(boronomethyl)-N-butyl-N-(2-(2-(2-(((2R,3R,4S,5S,6R)-3,4,5-trihydroxy-6-(hydroxymethyl)tetrahydro-2H-pyran-2-yl)oxy)ethoxy)ethoxy)ethyl)butan-1-aminium formation incubated for 72 hrs by LC-MS analysis; format: physicochemical; details: pH 7.4, 72 h
[35] = Stability of compound in 50 mM HCL assessed as N-(boronomethyl)-N-butyl-N-(2-(2-(2-(((2R,3R,4S,5S,6R)-3,4,5-trihydroxy-6-(hydroxymethyl)tetrahydro-2H-pyran-2-yl)oxy)ethoxy)ethoxy)ethyl)butan-1-aminium formation incubated for 72 hrs by LC-MS analysis; format: physicochemical; details: buffer
[36] = Stability of compound in 0.5 M NaOH assessed as N-(boronomethyl)-N-butyl-N-(2-(2-(2-(((2R,3R,4S,5S,6R)-3,4,5-trihydroxy-6-(hydroxymethyl)tetrahydro-2H-pyran-2-yl)oxy)ethoxy)ethoxy)ethyl)butan-1-aminium formation incubated for 72 hrs by LC-MS analysis; format: physicochemical
[37] = Stability of compound in 0.9 % saline solution assessed as N-(boronomethyl)-N-butyl-N-(2-(2-(2-(((2R,3R,4S,5S,6R)-3,4,5-trihydroxy-6-(hydroxymethyl)tetrahydro-2H-pyran-2-yl)oxy)ethoxy)ethoxy)ethyl)butan-1-aminium formation incubated for 72 hrs by LC-MS analysis; format: physicochemical; details: buffer
[38] = Stability of compound in 20 mM CH3COONH4 buffer at pH 5.8 assessed as N-(boronomethyl)-N-butyl-N-(2-(2-(2-(((2R,3R,4S,5S,6R)-3,4,5-trihydroxy-6-(hydroxymethyl)tetrahydro-2H-pyran-2-yl)oxy)ethoxy)ethoxy)ethyl)butan-1-aminium formation incubated for 72 hrs by LC-MS analysis; format: physicochemical; details: pH 5.8, 72 h
[39] = Stability of compound in 0.5 M NaOH assessed as N-butyl-N-methyl-N-(2-(2-(2-(((2R,3R,4S,5S,6R)-3,4,5-trihydroxy-6-(hydroxymethyl)tetrahydro-2H-pyran-2-yl)oxy)ethoxy)ethoxy)ethyl)butan-1-aminium formation incubated for 72 hrs by LC-MS analysis; format: physicochemical
[40] = Stability of compound in 0.3 % H2O2 assessed as (2R,3R,4S,5S,6R)-2-(2-(2-(2-(dibutylamino)ethoxy)ethoxy)ethoxy)-6-(hydroxymethyl)tetrahydro-2H-pyran-3,4,5-triol formation incubated for 1 hrs by LC-MS analysis; format: physicochemical
[41] = Stability of compound in phosphate/D2O buffer at pH 7.4 assessed as drug hydrolysis by measuring N-(boronomethyl)-N-butyl-N-(2-(2-(2-(((2R,3R,4S,5S,6R)-3,4,5-trihydroxy-6-(hydroxymethyl)tetrahydro-2H-pyran-2-yl)oxy)ethoxy)ethoxy)ethyl)butan-1-aminium formation incubated for 72 hrs by LC-MS analysis; format: physicochemical; details: pH 7.4, 72 h

- K [13]: 8.731
- K [14]: 0.017
- K [15]: 0.766
- K [16]: 0.016
- K [17]: 0.038
- half-life [18]: 25 h
- half-life [19]: ≥ 20.9 h
- half-life [20]: 0.904 h
- half-life [21]: 18.3 h
- half-life [22]: ~0.0794 h
- remaining at 1 h [23]: 4.15%
- Stability [24]: Stable
- Drug metabolism [25]: metabolite_detected
- Stability [26]: Stable
- Stability [27]: Stable
- Stability [28]: Stable
- Stability [29]: Stable
- Stability [30]: Stable
- Stability [31]: Stable
- Stability [32]: Stable
SMILES: C[N+](C)(Cc1cn([C@@H]2[C@@H](O)[C@H](O)[C@@H](CO)O[C@@H]2O)nn1)C[B-](F)(F)F
- Activity [1]: Non-toxic
- Activity [2]: Active
- Activity [3]: Active
- Activity [4]: Non-toxic
- Activity [5]: Active
- Activity [6]: Active
- Activity [7]: -15%
- Activity [8]: -15%
- Activity [9]: -15%
- Activity [10]: Non-toxic
- Activity [11]: Active
- Activity [12]: Active

- K [13]: 0.03
- K [14]: 0.086
- K [15]: 2.617
- K [16]: 0.082
- K [17]: 0.102
- half-life [18]: 8.07 h
- half-life [19]: 8.47 h
- half-life [20]: 0.265 h
- half-life [21]: 6.82 h
- half-life [22]: 22.8 h
- remaining at 1 h [23]: 8.89%
- Drug metabolism [33]: metabolite_detected
- Stability [34]: Stable
- Stability [35]: Stable
- Stability [36]: Stable
- Stability [37]: Stable
- Stability [38]: Stable
- Stability [39]: Stable
- Stability [40]: Stable
- Stability [41]: Stable
SMILES: CCCC[N+](CCCC)(CCOCCOCCO[C@@H]1O[C@H](CO)[C@@H](O)[C@H](O)[C@H]1O)C[B-](F)(F)F

— ChEMBL document CHEMBL6114940, “Exploring the pharmaceutical potential of ammonium organotrifluoroborate functional group: Comprehensive chemical, metabolic, and plasma stability evaluation” (Eur J Med Chem, 2024)
